# Reference: patent US8748436B2, “Carboxylic acid derivatives having a 2,5,7-substituted oxazolopyrimidine ring” (Sanofi, priority 2010, dated 2014)
# Target: T1, human Edg-1 receptor (Homo sapiens, UniProt P21453)
# T1 construct: FLAG (N); expressed in transfected cells; membrane preparation
# Assay: GTP-γ-S assay using human Edg-1 receptors (scintillation proximity assay, CHO Flp-In cell membrane preparation)
# Type: biochemical
# Conditions: test compound at 10 μM; high control 10 μM S1P regarded as 100% activation; [35S]GTP-γ-S binding, triplicate; read-out: % Activation (Edg-1 receptor activation in percent of the activation by 10 μM S1P)
# Text: A) GTP-γ-S Assay Using Human Edg-1 Receptors
# In order to determine the Edg-1 receptor activation by the compounds of the invention, a GTP-γ-S (guanosine 5′-[thio]triphosphate) assay for G-protein coupled receptor binding based on the scintillation proximity assay principle was used, employing a cell membrane preparation from a CHO Flp-In cell line which constitutively overexpresses the human Edg-1 receptor.
# The Flp-In™ expression system (Invitrogen, cat. no. K6010-01) allows the generation of stable mammalian cell lines into which the gene of interest has been integrated through homologous recombination at a specific genomic location called Flp Recombination Target (FRT) site by means of a Flp recombinase encoded by the pOG44 expression plasmid. The integration of the pcDNA5/FRT expression construct into the Flp-In host cell line genome results in the transcription of the gene of interest. The stably transfected cells become hygromycin-resistant.
# One day prior to transfection, 200 000 Flp-In-CHO cells were seeded in Ham F-12 medium (Invitrogen, cat. no. 31765) supplemented with 10% fetal calf serum (FCS; Perbio Science, cat. no. SH30068.03) in a 6-well plate and incubated at 37° C./5% CO2 overnight. Using the FuGENE® 6 transfection reagent (Roche, cat. no. 11988387001), cells were cotransfected with the Flp recombinase expression plasmid pOG44 and a modified plasmid additionally containing the edg-1 gene (accession no. NM_001400) termed as pcDNA5-FRT-TO_nFLAG_DEST-EDG-1 with a 9:1 ratio. To obtain the modified pcDNA5-FRT-TO_nFLAG_DEST plasmid, the Invitrogen plasmid pcDNA5/FRT/TO (Invitrogen, cat. no. V6520-20) was adapted to the Gateway® (Invitrogen) cloning system by inserting a Gateway cassette containing attR recombination sites flanking a ccdB gene and a chloramphenicol-resistance gene (Gateway conversion system, Invitrogen, cat. no. 11828-029). In addition a FLAG tag epitope was added before the 5′ att recombination site to allow recombinant expression of N-terminally FLAG-tagged proteins.
# For the transfection of one well, 1.08 μg of pOG44 and 0.12 μg of pcDNA5-FRT-TO_nFLAG_DEST-EDG-1 were mixed to 100 μl of serum-free Ham F-12 medium containing 6 μl of FuGENE® 6 transfection reagent. After 20 min of incubation, the transfection reagent/DNA complex was distributed dropwise on the cells. The cells were incubated for 24 h at 37° C. Then the cells from 3 wells were transferred to a T75 flask (Greiner Cellstar®, cat. no. 658175) containing Ham F-12 medium supplemented with 10% of FCS but without antibiotic and were incubated another 24 h. 48 h after transfection, the medium was replaced by selection medium (Ham F-12 supplemented with 10% of FCS and 300 μg/ml of hygromycin B (Invitrogen, cat. no. 10687-010)). The medium was exchanged every 2 to 3 days until a resistant population of cells had grown. […] After 2 weeks of selection, the cells were transferred into T175 flasks (Greiner Cellstar®, cat. no. 660175) and cultivated for batch production. Cells were harvested from the culture flasks by short treatment (2 to 5 min) with Accutase (PAA, cat. no. L11-007), resuspended in selection medium (see above) and centrifuged at 200×g for 5 min. The cells were resuspended in a mixture of 90% of FCS and 10% of dimethylsulfoxide and stored frozen in liquid nitrogen.
# A membrane preparation was obtained by standard methods from the afore-described CHO Flp-In cell line constitutively overexpressing the human Edg-1 receptor. Briefly, the cryopreserved cells were taken in culture and grown until confluency in T175 cell culture flasks (Becton Dickinson, cat. no. 35 5001). […]
# T1 sequence (P21453 whole entry): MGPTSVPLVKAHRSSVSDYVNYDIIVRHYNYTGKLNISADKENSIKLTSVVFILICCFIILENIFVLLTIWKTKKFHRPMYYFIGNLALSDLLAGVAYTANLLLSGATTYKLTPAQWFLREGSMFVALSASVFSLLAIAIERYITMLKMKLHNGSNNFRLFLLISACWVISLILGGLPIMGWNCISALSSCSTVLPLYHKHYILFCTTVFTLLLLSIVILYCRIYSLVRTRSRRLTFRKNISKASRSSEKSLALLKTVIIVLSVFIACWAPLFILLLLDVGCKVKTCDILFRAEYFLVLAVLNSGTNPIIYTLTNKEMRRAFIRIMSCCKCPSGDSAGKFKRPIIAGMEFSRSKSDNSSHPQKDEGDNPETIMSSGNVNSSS
row,activation at 10 µM [%],Compound
1,59,"CCCOc1nc(Oc2ccc(Cl)cc2)nc2oc(-c3cc(C)c(OCC(=O)O)c(C)c3)nc12 [Example 46, {4-[5-(4-chlorophenoxy)-7-propoxy-oxazolo[5,4-d]pyrimidin-2-yl]-2,6-dimethylphenoxy}-acetic acid]"
2,75,"CCCOc1nc(Oc2cnc3ccccc3c2)nc2oc(-c3cc(C)c(OCC(=O)O)c(C)c3)nc12 [Example 58, {2,6-dimethyl-4-[7-propoxy-5-(quinolin-3-yloxy)-oxazolo[5,4-d]pyrimidin-2-yl]-phenoxy}-acetic acid]"
3,70,"CCCOc1nc(OCC)nc2oc(-c3cc(C)c(OCC(=O)O)c(C)c3)nc12 [Example 17, [4-(5-ethoxy-7-propoxy-oxazolo[5,4-d]pyrimidin-2-yl)-2,6-dimethyl-phenoxy]-acetic acid]"
4,121,"CCOc1nc(Oc2cc(F)ccc2F)nc2oc(-c3cc(C)c(OCC(=O)O)c(C)c3)nc12 [Example 39, {4-[5-(2,5-difluorophenoxy)-7-ethoxy-oxazolo[5,4-d]pyrimidin-2-yl]-2,6-dimethyl-phenoxy}-acetic acid]"
5,100,"CCCOc1nc(Oc2cc(F)ccc2F)nc2oc(-c3cc(C)c(OCC(=O)O)c(C)c3)nc12 [Example 1, {4-[5-(2,5-Difluoro-phenoxy)-7-propoxy-oxazolo[5,4-d]pyrimidin-2-yl]-2,6-dimethyl-phenoxy}-acetic acid]"
6,76,"CCCOc1nc(Oc2ccccc2F)nc2oc(-c3cc(C)c(OCC(=O)O)c(C)c3)nc12 [Example 4, {4-[5-(2-fluoro-phenoxy)-7-propoxy-oxazolo[5,4-d]pyrimidin-2-yl]-2,6-dimethyl-phenoxy}-acetic acid]"
7,65,"CCCOc1nc(O[C@@H]2CCCC[C@H]2F)nc2oc(-c3cc(C)c(OCC(=O)O)c(C)c3)nc12 (relative stereo) [Example 3, {4-[5-(trans-2-Fluoro-cyclohexyloxy)-7-propoxy-oxazolo[5,4-d]pyrimidin-2-yl]-2,6-dimethyl-phenoxy}-acetic acid]"
8,66,"CCCOc1nc(Oc2ccc(C)c(Cl)c2)nc2oc(-c3cc(C)c(OCC(=O)O)c(C)c3)nc12 [Example 55, {4-[5-(3-chloro-4-methylphenoxy)-7-propoxy-oxazolo[5,4-d]pyrimidin-2-yl]-2,6-dimethylphenoxy}-acetic acid]"
9,67,"CCCOc1nc(Oc2ccccc2C(F)(F)F)nc2oc(-c3cc(C)c(OCC(=O)O)c(C)c3)nc12 [Example 69, {2,6-dimethyl-4-[7-propoxy-5-(2-trifluoromethylphenoxy)-oxazolo[5,4-d]pyrimidin-2-yl]-phenoxy}-acetic acid]"
10,66,"CCCOc1nc(Oc2cc(C)cc(F)c2)nc2oc(-c3cc(C)c(OCC(=O)O)c(C)c3)nc12 [Example 42, {4-[5-(3-fluoro-5-methylphenoxy)-7-propoxy-oxazolo[5,4-d]pyrimidin-2-yl]-2,6-dimethyl-phenoxy}-acetic acid]"
11,84,"CCOc1nc(Oc2cccc(F)c2)nc2oc(-c3cc(C)c(OCC(=O)O)c(C)c3)nc12 [Example 25, {4-[7-ethoxy-5-(3-fluorophenoxy)-oxazolo[5,4-d]pyrimidin-2-yl]-2,6-dimethyl-phenoxy}-acetic acid]"
12,48,"CCCOc1nc(Oc2cc(F)cc(C(F)(F)F)c2)nc2oc(-c3cc(C)c(OCC(=O)O)c(C)c3)nc12 [Example 75, {4-[5-(3-fluoro-5-trifluoromethylphenoxy)-7-propoxy-oxazolo[5,4-d]pyrimidin-2-yl]-2,6-dimethyl-phenoxy}-acetic acid]"
13,69,"CCCOc1nc(Oc2ccc(C(F)(F)F)cc2)nc2oc(-c3cc(C)c(OCC(=O)O)c(C)c3)nc12 [Example 68, {2,6-dimethyl-4-[7-propoxy-5-(4-trifluoromethylphenoxy)-oxazolo[5,4-d]pyrimidin-2-yl]-phenoxy}-acetic acid]"
14,97,"CCCOc1nc(Oc2ccccc2C)nc2oc(-c3cc(C)c(OCC(=O)O)c(C)c3)nc12 [Example 30, [2,6-dimethyl-4-(7-propoxy-5-(2-methylphenoxy)-oxazolo[5,4-d]pyrimidin-2-yl)-phenoxy]-acetic acid]"
15,110,"CCCOc1nc(Oc2cncc(C)c2)nc2oc(-c3cc(C)c(OCC(=O)O)c(C)c3)nc12 [Example 33, {2,6-dimethyl-4-[5-(5-methylpyridin-3-yloxy)-7-propoxy-oxazolo[5,4-d]pyrimidin-2-yl]-phenoxy}-acetic acid]"
16,82,"CCCOc1nc(Oc2cccc(C(F)(F)F)c2Cl)nc2oc(-c3cc(C)c(OCC(=O)O)c(C)c3)nc12 [Example 79, {4-[5-(2-chloro-3-trifluoromethylphenoxy)-7-propoxy-oxazolo[5,4-d]pyrimidin-2-yl]-2,6-dimethylphenoxy}-acetic acid]"
17,75,"CCCOc1nc(Oc2cccc(C)c2)nc2oc(-c3cc(C)c(OCC(=O)O)c(C)c3)nc12 [Example 29, [2,6-dimethyl-4-(7-propoxy-5-(3-methylphenoxy)-oxazolo[5,4-d]pyrimidin-2-yl)-phenoxy]-acetic acid]"
18,60,"CCCOc1nc(Oc2ccc(F)c(C)c2)nc2oc(-c3cc(C)c(OCC(=O)O)c(C)c3)nc12 [Example 43, {4-[5-(4-fluoro-3-methylphenoxy)-7-propoxy-oxazolo[5,4-d]pyrimidin-2-yl]-2,6-dimethyl-phenoxy}-acetic acid]"
19,67,"CCCOc1nc(Oc2cc(C)ccc2F)nc2oc(-c3cc(C)c(OCC(=O)O)c(C)c3)nc12 [Example 45, {4-[5-(2-fluoro-5-methylphenoxy)-7-propoxy-oxazolo[5,4-d]pyrimidin-2-yl]-2,6-dimethylphenoxy}-acetic acid]"
20,65,"CCCOc1nc(Oc2ccc(Cl)c(F)c2)nc2oc(-c3cc(C)c(OCC(=O)O)c(C)c3)nc12 [Example 64, {4-[5-(4-chloro-3-fluorophenoxy)-7-propoxy-oxazolo[5,4-d]pyrimidin-2-yl]-2,6-dimethylphenoxy}-acetic acid]"
21,97,"CCCOc1nc(Oc2ccc(F)cc2Cl)nc2oc(-c3cc(C)c(OCC(=O)O)c(C)c3)nc12 [Example 61, {4-[5-(2-chloro-4-fluorophenoxy)-7-propoxy-oxazolo[5,4-d]pyrimidin-2-yl]-2,6-dimethyl-phenoxy}-acetic acid]"
22,83,"CCCOc1nc(Oc2cnsn2)nc2oc(-c3cc(C)c(OCC(=O)O)c(C)c3)nc12 [Example 28, {2,6-dimethyl-4-[7-propoxy-5-([1,2,5]thiadiazol-3-yloxy)-oxazolo[5,4-d]pyrimidin-2-yl]-phenoxy}-acetic acid]"
23,72,"CCCOc1nc(Oc2ccc(Cl)cc2F)nc2oc(-c3cc(C)c(OCC(=O)O)c(C)c3)nc12 [Example 59, {4-[5-(4-chloro-2-fluorophenoxy)-7-propoxy-oxazolo[5,4-d]pyrimidin-2-yl]-2,6-dimethyl-phenoxy}-acetic acid]"
24,98,"CCCOc1nc(OCCC)c2nc(-c3cc(C)c(OCC(=O)O)c(C)c3)oc2n1 [Example 15, [4-(5,7-dipropoxy-oxazolo[5,4-d]pyrimidin-2-yl)-2,6-dimethyl-phenoxy]-acetic acid]"

row,Compound,activation at 10 µM [%]
1,"CCCOc1nc(OCC(C)C)nc2oc(-c3cc(C)c(OCC(=O)O)c(C)c3)nc12 [Example 12, [4-(5-isobutoxy-7-propoxy-oxazolo[5,4-d]pyrimidin-2-yl)-2,6-dimethyl-phenoxy]-acetic acid]",97
